The values that follow come from patent US20240409669A1, “Neutralizing Trivalent Protein-DNA Molecules (TRI-PDBODY) for SARS-COV-2 Infection Treatment” (priority 2021, published 2024).

In the assay the target is RBD of spike protein binding with ACE2 protein (Severe acute respiratory syndrome coronavirus 2, UniProt P0DTC2).

With Bovine serum albumin [BSA], the “Competitive inhibition of ACE2 binding with RBD of spike” value was “non-competitive binding signal”.
